Consider one compound from patent US20220389515A1, “USE OF BIOMARKERS TO PREDICT CLINICAL SENSITIVITY TO 2-(4-CHLOROPHENYL)-N-((2-(2,6-DIOXOPIPERIDIN-3-YL)-1-OXOISOINDOLIN-5-YL)METHYL)-2,2-DIFLUOROACETAMIDE” (priority 2019, published 2022).

For one experiment, the system named is AML cell lines. The experiment is described as follows: Cell proliferation assay (CTG) in AML cell lines, 72 hours. Format: cell-based, human. To be noted: 11 AML cell lines, Day 3.
Experiment [1] deals with T1, cereblon to GSPT1 (Homo sapiens, UniProt P15170+Q96SW2).
T1 construct: expressed in transfected cells; host or cells: 293FT CRBN-/- cells (transient transfection; cell extracts, anti-HA immunoprecipitation)
The experiment is described as follows: Cereblon binding assay with cell extracts (anti-HA immunoprecipitation), GSPT1. Particulars: wild-type FLAG-HA-CRBN; compound added directly into the binding assay. The text has this:
(§1) FIG. 3A illustrates FLAG-HA tagged cereblon wild-type (FLAG-HA-CRBN) or Y384A/W386A mutant (FLAG-HA-YWAA) produced in 293FT CRBN−/− cells was used to capture V5 tagged GSPT1 (GSPT1-V5) and V5 tagged IKZF1 (IKZF1-V5) transiently expressed in 293FT CRBN−/− cells. […] FIG. 3B illustrates the surface representation of GSPT1 in complex with cereblon, DDB1 and Compound D, with DDB1 shown in purple, cereblon in blue, and GSPT1 in orange. The position of Compound D is shown with a white arrow. FIG. 3C illustrates the Fo-Fc omit electron density (green mesh) for Compound D (yellow sticks) contoured at 3.06. […] Hydrogen bond interactions between cereblon and the GPST1 β-hairpin are shown as yellow dashes. FIG. 3E illustrates details of the binding interface between cereblon and GSPT1. Compound D is represented as yellow sticks. Predicted polar interactions between Compound D and cereblon are shown as yellow dashes. FIG. 3F illustrates the immunoblot analysis of U937 parental cells or cells stably expressing HA-GSPT1-G575N. Cells were treated with DMSO or Compound D at the indicated concentrations. FIGS. 3G and 311 illustrate the immunoblot analysis (left panel) and cell proliferation (right panel) of MOLM-13 (FIG. 3G) and OCI-AML2 (FIG. 311) parental cells and cells stably expressing HA tagged GSPT1-G575N. Cells were treated with DMSO or Compound D at indicated concentrations.

Experiment [2] has as its target T2, cereblon to GSPT1 (Homo sapiens, UniProt P15170+Q96SW2, W386A/Y384A).
T2 construct: expressed in transfected cells; host or cells: 293FT CRBN-/- cells (transient transfection; cell extracts, anti-HA immunoprecipitation)
The experiment is described as above. To be noted: FLAG-HA-YWAA mutant.
Excerpt: as §1

A further experiment addresses T3, cereblon to IKZF1 (Homo sapiens, UniProt Q96SW2).
T3 construct: expressed in transfected cells; host or cells: 293FT CRBN-/- cells (transient transfection; cell extracts, anti-HA immunoprecipitation)
Kind of experiment: Cereblon binding assay with cell extracts (anti-HA immunoprecipitation), IKZF1. Particulars: wild-type FLAG-HA-CRBN; compound added directly into the binding assay.
Excerpt: as §1

The test system of experiment [3] is U937 cells stably expressing Cas9. Kind of experiment: Genome-wide CRISPR-Cas9 screen of Compound D response. Format: cell-based, human. The procedure: FIG. 4A illustrates the schematic showing the design of the genome-wide CRISPR screen to identify molecular determinants of Compound D response. FIG. 4B illustrates the cell proliferation curve of U937-Cas9 cells transduced with the lentiviral sgRNA library and treated with DMSO or Compound D. Three days post-transduction, cells were treated with DMSO or 10 μM Compound D for 9 days. FIG. 4C illustrates normalized sgRNA read count comparison of different treatment conditions and technical replicates on day 3 and day 12 post-transduction of the lentiviral sgRNA library. 150 k sgRNAs are used in the scatter plots. Numbers in the upper right boxes indicate the Pearson correlation coefficient between samples. “***” indicates the correlation p-value is <0.001. sgRNAs targeting UBE2G1 or CRBN were shown in green and red, respectively. FIG. 4D illustrates pathway enrichment analysis of genes enriched by Compound D treatment with log 2 fold change (log 2FC)>2 and false discovery rate (FDR)<0.05 relative to the DMSO control. The color and size of the dots represent adjusted significance level and gene ratio respectively. Gene ratios refer to the number of input genes annotated to an individual pathway as a ratio of all input genes annotated to any Reactome pathway. […] The X axis denotes the Compound D enrichment score shown as log 2FC; the Y axis denotes the gene essentiality score shown as log 2FC (T12_DMSO vs T3_DMSO). Some of these genes were grouped into 10 functional modules with different color coding. […] Enriched pathways from the Reactome database were identified using Fisher's exact test and were selected by adjusted p-value (FDR)<0.05. Pathway nodes are color-coded with different shades of red according to their statistical significance. The grey nodes in the graph depict pathway genes that were enriched by Compound D treatment. The core enriched pathways modulating the response to Compound D are highlighted with green circles. FIGS. 4G and 4H show the log 2FC values of sgRNAs targeting Compound D enriched genes in the functional modules as indicated. […]

T3 sequence (Q96SW2 whole entry): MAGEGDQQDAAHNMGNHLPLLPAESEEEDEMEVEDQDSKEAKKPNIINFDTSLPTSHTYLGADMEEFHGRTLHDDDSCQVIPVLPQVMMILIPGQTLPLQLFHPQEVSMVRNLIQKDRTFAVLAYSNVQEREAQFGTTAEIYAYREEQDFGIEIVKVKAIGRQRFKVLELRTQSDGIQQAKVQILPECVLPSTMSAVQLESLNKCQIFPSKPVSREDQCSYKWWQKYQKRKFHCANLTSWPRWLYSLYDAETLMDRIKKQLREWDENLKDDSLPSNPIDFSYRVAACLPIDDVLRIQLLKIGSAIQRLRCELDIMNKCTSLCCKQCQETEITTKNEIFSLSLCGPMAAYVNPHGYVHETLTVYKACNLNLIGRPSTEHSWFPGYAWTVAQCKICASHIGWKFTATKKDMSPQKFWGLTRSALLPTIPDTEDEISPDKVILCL
T1 sequence (Q96SW2 whole entry): as above
T1 sequence (P15170 1-637 isoform P15170-3): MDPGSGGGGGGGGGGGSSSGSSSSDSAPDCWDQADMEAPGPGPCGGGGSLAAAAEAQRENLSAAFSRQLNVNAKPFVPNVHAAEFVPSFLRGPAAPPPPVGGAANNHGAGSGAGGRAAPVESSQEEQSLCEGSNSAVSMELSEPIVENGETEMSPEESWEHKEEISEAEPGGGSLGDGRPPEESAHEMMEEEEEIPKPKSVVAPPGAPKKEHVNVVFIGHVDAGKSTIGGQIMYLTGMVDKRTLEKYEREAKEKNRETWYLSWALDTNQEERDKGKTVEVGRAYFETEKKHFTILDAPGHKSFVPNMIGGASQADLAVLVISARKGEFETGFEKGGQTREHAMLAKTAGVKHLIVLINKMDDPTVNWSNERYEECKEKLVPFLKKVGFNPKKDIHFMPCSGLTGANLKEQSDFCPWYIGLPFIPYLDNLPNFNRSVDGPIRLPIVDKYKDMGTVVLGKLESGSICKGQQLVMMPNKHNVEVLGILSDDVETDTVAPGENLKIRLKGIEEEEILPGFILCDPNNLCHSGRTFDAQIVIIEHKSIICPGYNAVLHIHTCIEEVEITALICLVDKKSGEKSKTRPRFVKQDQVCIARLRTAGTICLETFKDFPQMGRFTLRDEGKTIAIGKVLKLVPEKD
T2 sequence (Q96SW2 whole entry Y384A/W386A): as the sequence (Q96SW2 whole entry) above, with Y384A, W386A counted along it
T2 sequence (P15170 1-637 isoform P15170-3, stated change not applied): as the sequence (P15170 1-637 isoform P15170-3) above
Description for AML cell lines: On Day 3, cell proliferation was assessed by the Cell-Titer Glo (CTG) assay.
For cell proliferation assays, human cancer cell lines cultured in the growth medium recommended by the vendor (as described above) were seeded into black 384-well plates containing DMSO or test compounds. The seeding density of each cell line was optimized to allow for cell growth in the linear growth phase during a 3-day culture period. To test the compounds' effect on cell proliferation in AML cell lines, 5,000 to 10,000 cells per well in 200 L complete culture media were seeded into black 96-well plates containing DMSO or test compounds. After 72 hours, cell proliferation was assessed using the CTG assay according to the manufacturer's instructions. […] Relative cell proliferation was normalized against cell growth values on day 4. The growth inhibitory curve was processed and graphed using GraphPad Prism Version 7 (P<0.05, unpaired two-sided t-test, is considered as significant).

Take `O=C1CCC(N2Cc3cc(CNC(=O)C(F)(F)c4ccc(Cl)cc4)ccc3C2=O)C(=O)N1` (stereo not shown) [Compound D, 2-(4-chlorophenyl)-N-((2-(2,6-dioxopiperidin-3-yl)-1-oxoisoindolin-5-yl)methyl)-2,2-difluoroacetamide]: the anti-proliferative activity entry with AML cell lines was “potent anti-proliferative activity in 10 out of 11 AML cell lines”. For the same compound, on cereblon to GSPT1 [1], the “binding of cereblon to GSPT1” value is recorded as “promoted the binding of cereblon to GSPT1”. Moreover, the “binding of cereblon mutant Y384A and W386A to GSPT1” value at cereblon to GSPT1 [2] is given as “completely abolished the binding of cereblon”. For the same compound, at cereblon to IKZF1, the “binding of cereblon to IKZF1” value is recorded as “not IKZF1”. Also, the “growth of U937 cells transduced with the lentiviral CRISPR library” value in experiment [3] (10 μM, 9 days) was “growth arrest of U937 cells”. Moreover, in experiment [3] (U937-Cas9, 1 μM or 10 μM), the “genes whose knockout conferred resistance (sgRNA enrichment)” value is “knockout of CRBN, TSC1, TSC2, ILF2, ILF3, ATF4, GCN2, DDIT4 or GCN1L1 genes conferred resistance to lethal doses of Compound D”. Besides, the “genes whose knockout enhanced sensitivity (sgRNA drop-out)” value in experiment [3] (U937-Cas9, sensitivity screen) is “knockout of RPTOR, MTOR, RICTOR, GSPT1 or DDX5 enhanced sensitivity to lethal doses of Compound D”.
